Experimental data reported in publication PMC10765375, “Crystal structure and enzymology of Solanum tuberosum inositol tris/tetrakisphosphate kinase 1 (StITPK1)” (Biochemistry, 2023).
pKd, pKi: −log10 of the molar value. “Also recorded” adds a separate entry of the source. Counter-ions that a name gives are not always drawn. Like-named read-outs stand apart in the source and are kept apart here.

Columns and labels:
StITPK1 [1] = target: T1, StITPK1 (Solanum tuberosum, UniProt A4H2J0); assay: Fluorescence polarization displacement of 2-FAM-InsP5; assay type: binding; conditions: Cheng-Prusoff with Kd 48 nM
T1 sequence (A4H2J0 entry or part of it): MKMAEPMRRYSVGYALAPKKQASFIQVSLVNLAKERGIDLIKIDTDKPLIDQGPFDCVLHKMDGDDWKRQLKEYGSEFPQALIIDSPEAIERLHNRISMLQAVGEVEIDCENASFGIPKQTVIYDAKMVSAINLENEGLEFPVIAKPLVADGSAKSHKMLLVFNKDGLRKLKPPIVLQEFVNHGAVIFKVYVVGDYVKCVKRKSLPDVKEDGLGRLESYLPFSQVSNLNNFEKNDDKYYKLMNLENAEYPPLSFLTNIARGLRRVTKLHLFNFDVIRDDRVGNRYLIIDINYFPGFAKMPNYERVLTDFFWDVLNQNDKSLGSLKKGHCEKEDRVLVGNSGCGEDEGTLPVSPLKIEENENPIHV
Text: To determine the relative strengths of binding of different inositol phosphate and inositol pyrophosphate substrates of StITPK1 we undertook fluorescence polarization experiments with 2-FAM-InsP5 [35]. […] A saturation curve for binding of 2-FAM-InsP5 to StITPK1 is shown (Figure S5) and displacement curves are shown for diverse inositol phosphates (Figure 2). The structures of these compounds are shown (Figure S1). […]
Fluorescence polarization (anisotropy)
A curve for binding of 2-FAM-InsP5 to StITPK1 was obtained by incubation of 2 nM 2-FAM-InsP5 [1] with increasing concentration (1-500 nM) of StITPK1 in 20 mM HEPES pH 6.5, 1 mM EDTA, 100 mM NaCl, after. Thereafter, displacement assays were performed by titration of inositol phosphate, inositol pyrophosphate […]
or analog thereof with 2 nM 2-FAM-InsP5 and 50 nM StITPK1. Compounds were tested for displacement in a range of 1 nM - 50 µM. Fluorescence polarization was measured in 384-well, black, low-binding plates, Corning product 3573. Binding and displacement curves (anisotropy) were log transformed and fitted to a 4-parameter logistic (in GraphPad Prism v.6 software (GraphPad Software Inc., San Diego, USA). Fitting of the […]
Substituting the value of Kd for KM in the Cheng-Prusoff equation for competitive inhibition: […]
with concentration of 2-FAM-InsP5 [S], yielded Ki with confidence intervals adjusted by linear approximation.
M.; Jamieson, A. G.; Potter, B. V.; Schwabe, J. W., Insights into the activation mechanism of class I HDAC complexes by inositol phosphates. Nat Commun 2016, 7, 11262. […]

StITPK1 [2] = target: T1, StITPK1; assay: Kinase assay with ATP, HPLC of products; assay type: biochemical; conditions: for Product formation (3h) / Product formation (12h): 25°C; for kinase substrate status: with ATP, HPLC
Procedure: (§1) Kinase assays were performed with ATP-regeneration as described for ATP-grasp kinases ITPK1/2 and VIH1/2 [2-3, 27-29], here in 20 mM HEPES pH 6.5, 1 mM MgCl2, 0.5 mM ATP and 1 mM inositol phosphate substrate. The low rate constants for phospho-kinase activity and the low sensitivity of NMR, PAGE and HPLC […]
(§2) [2-3, 27-29], here with or without 4 µM protein for 3h or 12h at 25 °C. Competition/inhibition assays were […]
InsP6, and competitor, typically 0.5 mM, incubated with or without 3 µM protein for 2 h at 25 °C . […]
(§3) 0.5 mM inositol pyrophosphate substrate incubated with 4 µM protein at 25 °C . HPLC analysis and detection of inositol phosphates by complexation with ferric ion was performed as described. Peak area data were analysed with the chromatography Jasco ChromNav v.2 software and x,y data were imported into GraphPad Prism v.6 software (GraphPad Software Inc., San Diego, USA) for plotting of chromatograms without additional processing of the data. […]

StITPK1 [3] = target: T1, StITPK1; assay: Competition/inhibition of Ins(1,2,3,4,5)P5 5-phospho-kinase activity, HPLC; assay type: biochemical; conditions: 0.5 mM competing substrate/inhibitor, 1 mM Ins(1,2,3,4,5)P5, 3h experiment
AtITPK1 [4] = target: T2, AtITPK1; assay: Kinase assay with ATP, HPLC of products; assay type: biochemical, Arabidopsis thaliana; conditions: for kinase substrate status: with ATP, HPLC
T2 construct: made in house
Procedure: as §1
[2-3, 27-29], here with or without 4 µM protein for 3h or 12h at 25 °C. […]
as §3

AtITPK1 [5] = system: T2, AtITPK1; conditions: cited from earlier work
AtVIH2 = system: AtVIH2; design: method as in PMID 31436531; conditions: isolated kinase domain ref 24; cited from earlier work
StITPK1 [6] = target: T1, StITPK1; assay: Competition/inhibition of InsP6 5-phospho-kinase activity, HPLC; assay type: biochemical; conditions: 5 μM inhibitor, 1 mM InsP6
Procedure: Figure 6 Inhibition of StITPK1 phospho-kinase activity by inositol pyrophosphate analogs. […] Reactions were performed for 2h at 30 °C with 3 μM StITPK1, 0.5 mM ATP, 1mM inositol phosphate in the absence or presence of competitor. The extent of inhibition at inhibitor concentration (mM) indicated by number in each column was estimated from the integrated peak areas of substrate and product peaks resolved by HPLC (example HPLC traces are shown in Figure S10). Significant difference at p=0.05 between inhibitor treatments (by One-way ANOVA and Tukey’s multiple comparisons test) is indicated by the absence of a common letter.
Schrödinger, LLC, New York, NY, 2021). All models of the complexes were subsequently energy minimized to convergence using the Prime module of Schrodinger (Schrödinger Release 2022-2: Prime) employing the all atom OPLS force field and the VSGB 2.1 implicit solvent model. Illustrations were generated using the PyMOL Molecular Graphics System, Version 2.5 (Schrödinger, LLC). […]
(§4) InsP6, and competitor, typically 0.5 mM, incubated with or without 3 µM protein for 2 h at 25 °C . […] Peak area data were analysed with the chromatography Jasco ChromNav v.2 software and x,y data were imported into GraphPad Prism v.6 software (GraphPad Software Inc., San Diego, USA) for plotting of chromatograms without additional processing of the data.
(§5) Fluorescence polarization (anisotropy) […]

StITPK1 [7] = target: T1, StITPK1; assay: Fluorescence polarization saturation binding of 2-FAM-InsP5; conditions: 2 nM probe, 1-500 nM StITPK1, one-site binding model
Procedure: Schrödinger, LLC, New York, NY, 2021). All models of the complexes were subsequently energy minimized to convergence using the Prime module of Schrodinger (Schrödinger Release 2022-2: Prime) employing the all atom OPLS force field and the VSGB 2.1 implicit solvent model. Illustrations were generated using the PyMOL Molecular Graphics System, Version 2.5 (Schrödinger, LLC).
as §1, §2, §4, §5
or analog thereof with 2 nM 2-FAM-InsP5 and 50 nM StITPK1. […] Fluorescence polarization was measured in 384-well, black, low-binding plates, Corning product 3573. […]

[8] = 2 nM 2-FAM-InsP5, 50 nM StITPK1, pH 6.5, read-out: Ki for displacement of 2-FAM-InsP5

Row | SMILES | pKi (StITPK1 [1]; Ki for displacement of 2-FAM-InsP5, 2 nM 2-FAM-InsP5, 50 nM StITPK1, pH 6.5) | Product formation (3h) (StITPK1 [2]; 1 mM substrate) | Product formation (12h) (StITPK1 [2]; 1 mM substrate) | Product formation (separate 12h experiment) (StITPK1 [2]; 1 mM substrate, separate 12h experiment) | Kcat (turnover of substrate) (StITPK1 [2]; in the absence of inhibitor, 1 mM substrate, 0.5 mM ATP, pH 6.5) | kinase substrate status (StITPK1 [2]) | % inhibition at 3h, Ins(1,2,3,4,5)P5 substrate (StITPK1 [3]) | kinase substrate status (AtITPK1 [4]) | Kcat for phospho-kinase activity (AtITPK1 [5]; calculated from data ref 20-21, 27) | turnover number, 1-phospho-kinase activity (AtVIH2) | pKi (StITPK1 [1]; [8]) | Discrimination between InsP4 enantiomers in favour of Ins(3,4,5,6)P4 (StITPK1 [2]; vs Ins(1,4,5,6)P4) | inhibition of 5-PP-InsP5-synthesizing (InsP6 phospho-kinase) activity (StITPK1 [6]) | Discrimination between InsP4 enantiomers in favour of Ins(3,4,5,6)P4 (AtITPK1 [4]; vs Ins(1,4,5,6)P4) | Vmax relative to InsP6 (AtITPK1 [5]) | pKd (StITPK1 [7])
1 | O=P(O)(O)O[C@H]1[C@H](OP(=O)(O)O)[C@@H](OP(=O)(O)O)[C@H](OP(=O)(O)O)[C@@H](OP(=O)(O)O)[C@H]1OP(=O)(O)O [myo-InsP6, myo-inositol 1,2,3,4,5,6-hexakisphosphate] | 6.90 | 241 μM/μM protein | 289 μM/μM protein | 220 μM/μM protein | ~ 1.14 min^-1 | generating 5-PP-InsP5; also recorded: strongest phospho-kinase substrate | 89% | strongest phospho-kinase substrate | ~ 1.5 min^-1 | ~ 0.4 min^-1 |  |  |  |  |  | 
2 | O=P(O)(O)O[C@H]1[C@@H](OP(=O)(O)O)[C@H](OP(=O)(O)O)[C@@H](OP(=O)(O)OP(=O)(O)O)[C@H](OP(=O)(O)O)[C@H]1OP(=O)(O)O [5-PP-InsP5, 5-diphospho-myo-inositol 1,2,3,4,6-pentakisphosphate] |  | 0 μM/μM protein | 0 μM/μM protein |  |  | not a substrate | 82% | not a substrate |  | ~ 1 min^-1 | 6.79 |  |  |  |  | 
3 | O=P(O)(O)O[C@H]1[C@H](OP(=O)(O)O)[C@@H](OP(=O)(O)O)[C@@H](O)[C@@H](O)[C@@H]1OP(=O)(O)O [Ins(3,4,5,6)P4, 1D-myo-inositol 3,4,5,6-tetrakisphosphate] |  |  |  |  |  | better substrate than both its enantiomer Ins(1,4,5,6)P4 and InsP6 |  |  |  |  | 6.15 | ~ 200 fold | particularly powerful inhibitor | ~ 200 fold | 3 orders of magnitude greater | 
4 | O=C(NCCO[C@H]1[C@@H](OP(=O)(O)O)[C@H](OP(=O)(O)O)[C@@H](OP(=O)(O)O)[C@H](OP(=O)(O)O)[C@H]1OP(=O)(O)O)c1ccc2c(c1)C(=O)OC21c2ccc(O)cc2Oc2cc(O)ccc21 [2-FAM-InsP5, 2-O-(2-(5-fluoresceinylcarboxy)-aminoethyl)-myo-inositol 1,3,4,5,6-pentakisphosphate (triethylammonium salt)] |  |  |  |  |  |  |  |  |  |  |  |  |  |  |  | 7.32
